Assay results as given in US20090325959A1 (priority 2008, published 2009).
Like-named read-outs stand apart in the source and are kept apart here.

Key:
[1] = Compound plasma concentrations in unsensitized mice at 15 min post administration; assay type: in vivo; details: mouse, 15 μmol/kg; mean compound plasma concentration in mice at 15 minutes post oral administration; read-out: Mouse Oral PK
ROCK1 = target: T1, ROCK1 (Homo sapiens, UniProt Q13464); assay: Rho kinase inhibition assay (IMAP fluorescence polarization), ROCK1; assay type: biochemical;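 also: kinase reaction run 60 min at room temperature, then phosphorylated substrate captured on IMAP beads for 30 min, with fluorescence polarization read in mP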
T1 construct: purchased Upstate/Chemicon 14-601
T1 sequence (Q13464 17-535 limits assumed): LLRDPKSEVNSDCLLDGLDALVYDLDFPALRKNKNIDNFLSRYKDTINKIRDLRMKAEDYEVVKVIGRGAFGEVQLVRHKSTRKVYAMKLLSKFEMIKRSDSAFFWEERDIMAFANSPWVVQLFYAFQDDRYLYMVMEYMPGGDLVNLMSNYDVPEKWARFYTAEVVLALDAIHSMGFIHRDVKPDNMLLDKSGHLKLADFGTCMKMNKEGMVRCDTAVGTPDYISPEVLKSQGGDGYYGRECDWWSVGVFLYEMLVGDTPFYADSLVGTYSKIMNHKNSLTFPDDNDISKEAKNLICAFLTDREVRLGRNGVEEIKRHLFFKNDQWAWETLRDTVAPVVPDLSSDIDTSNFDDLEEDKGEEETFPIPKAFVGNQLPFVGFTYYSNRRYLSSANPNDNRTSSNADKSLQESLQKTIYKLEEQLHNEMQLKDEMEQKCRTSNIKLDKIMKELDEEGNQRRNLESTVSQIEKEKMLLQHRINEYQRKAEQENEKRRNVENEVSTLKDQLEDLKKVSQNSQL
Protocol: (§1) Following the pre-incubation, 10 μM ATP was added to initiate the reaction. After 60 minutes at room temperature, Molecular Devices IMAP™ binding solution was added to bind phosphorylated substrate. After 30 minutes of incubation in the presence of the IMAP™ beads, the fluorescence polarization was read and the ratio was reported as mP. IC50 values for compounds and EC50 values for ATP were calculated using the Prism software from Graphpad.

[2] = test system: A-10 rat thoracic aorta cells; assay: PDGF-stimulated smooth muscle cell proliferation assay (BrdU incorporation); assay type: cell-based; details: A-10 cells, 10 ng/mL PDGF, BrdU incorporation, percent of total challenge-stimulated proliferation; for Percent of PDGF Induced Proliferation at 1 μM Avg: 1 μM test compound; for Percent of PDGF Induced Proliferation at 10 μM Avg: 10 μM test compound;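 as to all read-outs here: cells kept in serum-free medium, BrdU allowed to incorporate for 24 h, then incorporated label detected fluorometrically with an anti-BrdU antibody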
Akt3 human enzyme = target: T2, Akt3 human enzyme (Homo sapiens, UniProt Q9Y243); assay: Akt3 inhibition assay (IMAP FP); assay type: biochemical;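 also: kinase reaction run 60 min at room temperature after 30 µM ATP start, phosphorylated substrate captured on IMAP beads and read as fluorescence polarization (mP)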
T2 construct: purchased Upstate Chemicon 14-502
T2 sequence (Q9Y243 whole entry): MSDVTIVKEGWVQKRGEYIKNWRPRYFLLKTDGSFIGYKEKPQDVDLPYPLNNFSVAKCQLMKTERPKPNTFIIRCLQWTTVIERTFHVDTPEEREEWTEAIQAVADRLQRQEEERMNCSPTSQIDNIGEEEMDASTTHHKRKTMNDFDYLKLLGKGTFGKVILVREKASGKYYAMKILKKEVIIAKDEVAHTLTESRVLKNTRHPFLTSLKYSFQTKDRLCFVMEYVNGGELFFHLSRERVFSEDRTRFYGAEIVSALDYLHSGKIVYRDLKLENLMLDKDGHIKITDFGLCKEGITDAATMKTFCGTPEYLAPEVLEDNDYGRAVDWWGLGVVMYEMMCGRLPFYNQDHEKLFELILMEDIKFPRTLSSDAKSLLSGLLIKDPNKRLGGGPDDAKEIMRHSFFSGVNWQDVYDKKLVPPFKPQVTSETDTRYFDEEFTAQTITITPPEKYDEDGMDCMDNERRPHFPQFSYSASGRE

ROCK2 = target: T3, ROCK2 (Homo sapiens, UniProt O75116); assay: Rho kinase inhibition assay (IMAP fluorescence polarization), ROCK2; assay type: biochemical;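 also: kinase reaction started with 10 µM ATP and run 60 min at room temperature, then phosphorylated substrate captured on IMAP beads for 30 min and fluorescence polarization read in mP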
T3 construct: purchased Upstate/Chemicon 14-451
T3 sequence (O75116 11-552 limits assumed): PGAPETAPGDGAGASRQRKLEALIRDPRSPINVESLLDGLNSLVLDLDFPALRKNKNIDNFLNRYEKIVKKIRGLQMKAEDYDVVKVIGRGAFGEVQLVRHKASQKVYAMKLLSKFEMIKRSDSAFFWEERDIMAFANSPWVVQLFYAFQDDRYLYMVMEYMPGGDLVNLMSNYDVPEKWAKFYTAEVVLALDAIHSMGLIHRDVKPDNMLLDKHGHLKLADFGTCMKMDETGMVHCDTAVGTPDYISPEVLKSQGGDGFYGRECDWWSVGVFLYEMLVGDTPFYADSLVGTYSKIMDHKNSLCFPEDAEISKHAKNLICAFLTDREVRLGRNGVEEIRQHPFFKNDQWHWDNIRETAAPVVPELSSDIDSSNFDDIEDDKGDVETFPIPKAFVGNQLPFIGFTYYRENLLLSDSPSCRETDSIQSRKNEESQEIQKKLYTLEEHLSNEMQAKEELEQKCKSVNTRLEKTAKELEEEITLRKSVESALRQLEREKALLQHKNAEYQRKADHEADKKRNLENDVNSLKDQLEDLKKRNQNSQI
Protocol: as §1

p70S6K human enzyme = target: T4, p70S6K human enzyme (Homo sapiens, UniProt P23443, T412E); assay: p70S6K inhibition assay (IMAP FP); assay type: biochemical;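 also: kinase reaction run at room temperature, phosphorylated substrate captured on IMAP beads and read as fluorescence polarization in mP, IC50 then converted to Ki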
T4 construct: purchased Upstate Chemicon 14-486
T4 sequence (P23443 1-421 T412E limits assumed): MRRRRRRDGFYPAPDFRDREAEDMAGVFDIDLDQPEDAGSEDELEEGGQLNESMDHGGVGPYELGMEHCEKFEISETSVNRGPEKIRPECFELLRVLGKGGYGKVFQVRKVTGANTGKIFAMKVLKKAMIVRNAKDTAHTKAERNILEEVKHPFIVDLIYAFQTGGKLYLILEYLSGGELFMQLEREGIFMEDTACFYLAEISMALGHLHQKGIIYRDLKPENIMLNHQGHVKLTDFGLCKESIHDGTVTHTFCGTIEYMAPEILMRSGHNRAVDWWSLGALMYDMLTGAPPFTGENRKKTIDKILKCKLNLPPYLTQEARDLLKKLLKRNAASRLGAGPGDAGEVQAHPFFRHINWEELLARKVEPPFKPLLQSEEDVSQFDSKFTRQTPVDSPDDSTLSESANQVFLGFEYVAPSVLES

[3] = 30 μM ATP, Ki=IC50/(1+([ATP Challenge]/EC50 ATP)), read-out: Akt3 Ki, Avg
[4] = 10 μM ATP, read-out: ROCK2 Ki, Avg
[5] = 30 μM ATP, Ki=IC50/(1+([ATP Challenge]/EC50 ATP)), read-out: p70S6K Ki, Avg
[6] = average Ki, read-out: p70S6K Ki

SMILES | concentration at 15 min [1] | Ki (ROCK1; Avg, 10 μM ATP) | Ki (ROCK1; average Ki) | Percent of PDGF Induced Proliferation at 1 μM Avg [2] | Percent of PDGF Induced Proliferation at 10 μM Avg [2] | Ki (Akt3 human enzyme; [3]) | Ki (Akt3 human enzyme; average Ki, read-out: Akt3 Ki) | Ki (ROCK2; [4]) | Ki (ROCK2; average Ki, read-out: ROCK2 Ki) | Ki (p70S6K human enzyme; [5]) | Ki (p70S6K human enzyme; [6])
Cc1ccc(CN2CCC[C@@H](Nc3ccc4[nH]ncc4c3)C2)cc1O [Compound 1.173, (R)-5-((3-(1H-indazol-5-ylamino)piperidin-1-yl)methyl)-2-methylphenol] | 144 nM | 15.1 nM | 15.1 nM | 55.4% | 35.8% | 157 nM | 157 nM | 3.6 nM | 3.6 nM | 340 nM | 340 nM
c1cc2cc(CN3CCC[C@H](Nc4ccc5[nH]ncc5c4)C3)ccc2s1 [Compound 1.175, (S)-N-(1-(benzo[b]thiophen-5-ylmethyl)piperidin-3-yl)-1H-indazol-5-amine] | 1130 nM | 65.9 nM | 65.9 nM | 58.2% | 49.0% | 2820 nM | 2820 nM | 7.6 nM | 7.6 nM | 853 nM | 853 nM
CC(=O)NCc1cccc(CN2CCC[C@H](Nc3ccc4[nH]ncc4c3)C2)c1 [Compound 1.197] | 453 nM | 120 nM | 120 nM | 52.5% | 48.9% | 64100 nM | 64100 nM | 5 nM | 5 nM | 8690 nM | 8690 nM
c1cc(C2CC2)ccc1CN1CCC[C@@H](Nc2ccc3[nH]ncc3c2)C1 [Compound 1.206, (R)-N-(1-(4-cyclopropylbenzyl)piperidin-3-yl)-1H-indazol-5-amine] | 672 nM | 64.4 nM | 64.4 nM | 77.5% | 51.1% | 529 nM | 529 nM | 9.1 nM | 9.1 nM | 314 nM | 314 nM
CS(=O)(=O)Nc1cc(CN2CCC[C@H](Nc3ccc4[nH]ncc4c3)C2)ccc1Cl [Compound 1.213, (S)-N-(5-((3-(1H-indazol-5-ylamino)piperidin-1-yl)methyl)-2-chlorophenyl)methanesulfonamide] | 396 nM | 106 nM | 106 nM | 70.1% | 52.3% | 3210 nM | 3210 nM | 3 nM | 3 nM | 2100 nM | 2100 nM
NS(=O)(=O)c1cccc(CN2CCC[C@H](Nc3ccc4[nH]ncc4c3)C2)c1 [Compound 1.215, (S)-3-((3-(1H-indazol-5-ylamino)piperidin-1-yl)methyl)benzenesulfonamide] | 2650 nM | 103 nM | 103 nM | 70.8% | 54.0% | 14800 nM | 4750 nM | 3.5 nM | 3.5 nM | 1290 nM | 1290 nM
CCCS(=O)(=O)Nc1cc(CN2CCC[C@H](Nc3ccc4[nH]ncc4c3)C2)ccc1C [Compound 1.238, (S)-N-(5-((3-(1H-indazol-5-ylamino)piperidin-1-yl)methyl)-2-methylphenyl)propane-1-sulfonamide] | 48 nM | 61.2 nM | 61.2 nM | 40.7% | 48.6% | 4170 nM | 4170 nM | 1.5 nM | 1.5 nM | 2610 nM | 2610 nM
